Test results as given in PubChem BioAssay AID1508591.

Conditions: rat; liver microsomes; pH 7.4; 15.0 min; 1.0 µM

Going from `Cc1ccc(S(=O)(=O)Nc2ccccc2N2CCCCC2)cc1` to `Cc1ccc(S(=O)(=O)Nc2cnccc2C(=O)Nc2ccc(N3CCOCC3)cc2)cc1`, the half-life rises from 1.69 min to 23 min (14-fold).

First: COc1ccc(-n2c(C)cc(-c3nnc4n3CCCCC4)c2C)cc1
Second: CCOC(=O)c1ccc2c(c1)c(C(C)=O)c(C)n2-c1ccc(OC)cc1
The half-life of the first is 1.6-fold higher: 2.4 min for the first, 1.5 min for the second.

First: O=C(Nc1ncc([S+](=O)([O-])N2CCOCC2)s1)c1cccc(Br)c1
Second: Cc1cc(C)c(C(=O)Nc2cccc([S+](=O)([O-])N3CCCCC3)c2)[nH]1
The half-life of the first is 7.7-fold higher: 23 min for the first, 3 min for the second.

`CC(C)CC(C)NC(=O)c1noc(-c2ccc[nH]c2=O)n1` (centres undefined) and `CNc1oc(-c2cccc3ccccc23)nc1C(=O)OC` cannot be ordered by half-life: > 30 min for the first, > 30 min for the second.

Compared with `Cc1c([C@@H](C)C2NC[C@H](C)C[C@@H]2O)ccc2c1C[C@@H]1[C@H]2CC=C2C[C@@H](O)CC[C@@]21C` (some centres undefined), `CC(=O)c1c(C)[nH]c(C(=O)Nc2cccc(S(=O)(=O)N3CCCCCC3)c2)c1C` is lower in half-life: > 30 min for the first, 1.6 min for the second.

First: O=C(Cc1ccc(Cl)c(Cl)c1)Nc1ccc(S(=O)(=O)Nc2nncs2)cc1
Second: Cc1cc(NS(=O)(=O)c2ccc(NC(=O)Cc3ccc(Cl)c(Cl)c3)cc2)n(C)n1
The half-life of the first is higher: > 30 min for the first, 13 min for the second.

`COc1ccc(OC)c(-c2cc(C(=O)N3CCN(c4ncccn4)CC3)c3ccccc3n2)c1` and `COc1ccccc1Nc1ccnc(N2CCN(C(=O)c3ccccc3Cl)CC2)n1` are within 1.5-fold of each other in half-life: 7.87 min for the first, 7.9 min for the second.

First: Cn1c(=O)c2[nH]c(=O)[nH]c2n(C)c1=O
Second: COC(=O)c1ccc(Oc2nc3c(c(=O)n(C)c(=O)n3C)n2CCC(C)C)cc1
The half-life of the first is higher: > 30 min for the first, 2.7 min for the second.

Going from `CC(=O)Nc1cc(-c2nc(Nc3ccc(F)c(F)c3)c3ccccc3n2)ccn1` to `N#Cc1cc(-c2nc(Nc3ccc(F)c(F)c3)c3ccccc3n2)ccn1`, the half-life rises from 12 min to > 30 min.

Going from `CC(=O)c1c(C)[nH]c(C(=O)Nc2cccc([S+](=O)([O-])N3CCC(F)(F)CC3)c2)c1C` to `O=C(Nc1cccc(C(F)(F)F)c1)c1ccccc1NC(=O)C1CCCCC1`, the half-life rises from 2.4 min to 25 min (10-fold).

Compared with `C[C@H]1CN(C(=O)Nc2ccc(F)cc2F)C[C@@H]1c1nc(-c2ccccc2)no1`, `Fc1ccc(F)c(Nc2nc(-c3ccncc3)nc3ccccc23)c1` is lower in half-life: > 30 min for the first, 10 min for the second.

First: COc1ccc(-c2nc3ccccc3s2)cc1NC(=O)c1ccc(F)cc1
Second: COc1cc(Nc2nc(-c3ccncc3)nc3ccccc23)ccc1Cl
The half-life of the first is higher: > 30 min for the first, 12 min for the second.

`Cc1ccccc1C(=O)Nc1nc2c(s1)CC(C(C)(C)C)CC2` (centres undefined) and `Cc1cc(S(=O)(=O)Nc2cnccc2C(=O)Nc2nc(-c3ccccc3)cs2)c(C)o1` are within 1.5-fold of each other in half-life: 10.5 min for the first, 8.55 min for the second.

`CCN(c1cc(C#CCN2CCOCC2)cc(C(=O)NCc2c(C)cc(C)[nH]c2=O)c1C)C1CCC(N(C)CCOC)CC1` (centres undefined) and `O=C(O)C1CCN(c2ncc(-c3ccc4c(c3)OCCCO4)s2)CC1` cannot be ordered by half-life: > 30 min for the first, > 30 min for the second.

Compared with `O=S(=O)(Nc1ccc(-c2cccnc2)c2cccnc12)c1cccc(C(F)(F)F)c1`, `O=C(Nc1nc(-c2ccccc2)cs1)c1ccncc1NS(=O)(=O)c1ccc(F)cc1Cl` is 15-fold higher in half-life: 1.25 min for the first, 19 min for the second.

`CCCCCCN(CCCCCC)C(=O)Cc1c(-c2ccc(F)cc2)[nH]c2ccccc12` and `CN(C)CCNC(=O)c1nc(-c2ccccc2)cc2[nH]ccc12` are within 1.5-fold of each other in half-life: 2.5 min for the first, 1.92 min for the second.

Compared with `COc1ccccc1-c1nnc2sc(-c3ccc(N(C)C)cc3)nn12`, `COc1ccc(C2=Nn3c([n+](C)c4ccccc43)SC2)cc1` is higher in half-life: 2.24 min for the first, > 30 min for the second.

Going from `COc1ccccc1NC(=O)C1=C(C)Nc2c(C(=O)Nc3ccc(F)cc3)cnn2C1c1ccc(Cl)cc1` (centres undefined) to `COc1cc2nccc(Oc3ccc(NC(=O)C4(C(=O)Nc5ccc(F)cc5)CC4)cc3)c2cc1OC`, the half-life rises from 3.34 min to > 30 min.

Compared with `Fc1cnc(-c2ccccc2C(F)F)nc1NCc1ccc(-c2ccn[nH]2)cc1`, `Fc1ccc(-c2csc3ncnc(NCc4ccc5c(c4)OCO5)c23)cc1` is 1.9-fold higher in half-life: 10 min for the first, 19.2 min for the second.

Going from `CCCCNC(=O)CN1CCN(c2ncc(NC(=O)c3ccc(Cl)cc3)cc2C(=O)O)CC1` to `O=C(Nc1ccc(S(=O)(=O)N2CCN(Cc3ccccc3)CC2)cc1)c1cnccn1`, the half-life falls from > 30 min to 1.8 min.

Compared with `CCCCC1CCC(C(=O)Nc2ccc(S(=O)(=O)Nc3nccs3)cc2)CC1` (centres undefined), `O=S(=O)(Nc1nccs1)c1ccc(NCc2cccc(Br)c2O)cc1` is lower in half-life: > 30 min for the first, 14 min for the second.

`O=C(Nc1ncc(Cc2ccc(C(F)(F)F)cc2)s1)c1cnc(-c2ccccc2)s1` and `O=C(Nc1ncc(Cc2ccc(C(F)(F)F)cc2)s1)c1cccc(-c2ccccc2)c1` cannot be ordered by half-life: > 30 min for the first, > 30 min for the second.

Going from `CC(C)(C)OC(=O)N1CCN(c2ccc(NCc3ccc(-c4ccc(C#N)cc4)o3)cc2)CC1` to `CN1CCN(c2ccc(Nc3nn4c(=O)c5ccccc5nc4s3)cc2)CC1`, the half-life rises from 3.62 min to 15.2 min (4.2-fold).

Going from `Fc1ccc(-c2ccc(Nc3nc(-c4ccncc4)nc4ccccc34)cc2F)c(Cl)c1` to `c1ccc2c(NC3CCCCC3)nc(-c3ccncc3)nc2c1`, the half-life falls from 25 min to 10 min (2.5-fold).

First: Clc1ccccc1-c1nccc(-n2ccnc2)n1
Second: CCCCCOc1ccccc1/C(=C\SC)n1ccnc1
The half-life of the first is higher: > 30 min for the first, 6.67 min for the second.

First: CCCCOc1ccc(CC(=O)NO)cc1
Second: CCOC(=O)Cc1ccc(NC(=O)n2ncc3cc(Cl)ccc32)cc1
The half-life of the first is higher: > 30 min for the first, 2.5 min for the second.

Going from `CCCc1c(CC)c(=N)c2ccccc2n1C` to `Cn1c(=O)c2c(-c3ccc(Br)cc3)n(CCc3ccccc3)cc2n(C)c1=O`, the half-life falls from > 30 min to 1.23 min.

Compared with `Cc1ccc(C)c(CN2C(=O)c3ccccc3S(=O)c3ccc(C(=O)N4CCN(c5ccccc5F)CC4)cc32)c1` (centres undefined), `Cc1ccc(S(=O)(=O)Nc2cccc(C(=O)Nc3nc(-c4ccccc4)cs3)c2)cc1` is 6.9-fold higher in half-life: 2.32 min for the first, 16 min for the second.

First: CCc1cccc(NC(=O)C(Cc2ccccc2)NS(=O)(=O)c2cccs2)c1 (centres undefined)
Second: O=C(Nc1cncc(Cc2ccccc2)c1)c1ccc(-c2cccc([N+](=O)[O-])c2)o1
The half-life of the first is 1.7-fold lower: 1.44 min for the first, 2.4 min for the second.

`Cc1cc(C)nc(NC(=S)N2CCN(c3cc(C(F)(F)F)nc4ccccc34)CC2)c1` and `Cc1cc(C)nc(NC(=S)N2CCN(c3ccc(C(F)(F)F)cc3Cl)CC2)c1` cannot be ordered by half-life: > 30 min for the first, > 30 min for the second.

Going from `CN(Cc1ccccc1)C(=O)C1CCN(Cc2cccc3ccccc23)CC1` to `c1ccc(CNc2nc(NCc3ccccc3)c3ccccc3n2)cc1`, the half-life rises from 2.4 min to 5.2 min (2.2-fold).

Going from `O=C1Nc2cc(Cl)ccc2Nc2cscc21` to `C[C@@]1(c2ncncc2F)NC(=O)c2cc(-c3cn[nH]c3)ccc21`, the half-life rises from 21.8 min to > 30 min.

First: COC(=O)c1ccc2nc(NC3=NC(c4[nH]ncc4Cl)C4=C(CCCC4=O)N3)oc2c1 (centres undefined)
Second: O=C1CCCC2=C1C(c1[nH]ncc1Cl)N=C(Nc1nc3ccc(Cl)cc3o1)N2 (centres undefined)
The half-life of the first is 1.7-fold lower: 5.9 min for the first, 10 min for the second.

First: Cc1ccc(S(=O)(=O)Nc2cnccc2C(=O)Nc2nc(C(=O)O)cs2)cc1
Second: O=S(=O)(Nc1ccccc1)c1ccc(NCc2ccc(Br)cc2O)cc1
The half-life of the first is higher: > 30 min for the first, 2 min for the second.

First: CC[C@H]1CN2CCC3CC(OC)C(OC)CC3[C@@H]2C[C@@H]1C[C@H]1NCCC2=C1CC(OC)=C(O)C2 (some centres undefined)
Second: COc1cc2c3cc1Oc1c(O)c(OC)cc4c1[C@@H](Cc1ccc(cc1)Oc1cc(ccc1O)C[C@H]3N(C)CC2)N(C)CC4
The half-life of the first is higher: > 30 min for the first, 29.8 min for the second.

Going from `O=S(=O)(Nc1ccc2ccccc2c1)c1ccc(NCc2cccc(Cl)c2O)cc1` to `O=[S+]([O-])(Nc1ccccc1)c1ccc(NCc2cccc(Cl)c2F)cc1`, the half-life falls from 13 min to 4.5 min (2.9-fold).

First: Cc1nn2c(c1-c1ccccc1-c1ccccc1)N(CC1CC1)CCC2
Second: Cc1nnc2c3ccccc3nc(N3CCN(c4ccccc4)CC3)n12
The half-life of the first is lower: 2.78 min for the first, > 30 min for the second.

First: CC(C)CNc1ncnc2onc(-c3ccc(Cl)cc3)c12
Second: CCOC(=O)c1ccc(-c2ccc3ncnc(NCCc4cnc[nH]4)c3c2)o1
The half-life of the first is lower: 12 min for the first, > 30 min for the second.

First: O=c1[nH]cnc2nc[nH]c12
Second: Nc1ncc(S(=O)(=O)N2CCN(c3ccccc3)CC2)cn1
The half-life of the first is higher: > 30 min for the first, 1.3 min for the second.

`COc1ccnc(NC(=S)N2CCN(c3ncc(C(F)(F)F)cc3Cl)CC2)c1` and `O=C(Nc1ncc(Cc2ccc(C(F)(F)F)cc2)s1)c1ccc(-c2ccccc2[N+](=O)[O-])o1` cannot be ordered by half-life: > 30 min for the first, > 30 min for the second.

Going from `O=C(O)CCC(=O)Nc1nc(-c2ccccc2)cs1` to `CN(C(=O)CNC(=O)c1ccccc1OCC(=O)Nc1ccc(I)cc1)c1ccccc1`, the half-life falls from > 30 min to 1.44 min.

First: CCN(CC)CCCCNc1ncc2cc(-c3c(Cl)cccc3Cl)c(NC(=O)NC(C)(C)C)nc2n1
Second: Cc1sc2c(c1C)C(c1ccc(Cl)cc1)=N[C@@H](CC(=O)OC(C)(C)C)c1nnc(C)n1-2
The half-life of the first is higher: > 30 min for the first, 6.4 min for the second.

Compared with `CCc1ccc(NC(=O)CSC2=Nc3ccccc3C3=NC(CC(=O)NCc4ccc5c(c4)OCO5)C(=O)N23)cc1` (centres undefined), `CC1=C(C(=O)Nc2ccccc2)C(c2ccccc2Br)N=C(Nc2nc3ccccc3o2)N1` (centres undefined) is 9.4-fold higher in half-life: 2.86 min for the first, 27 min for the second.

Compared with `CO[C@@H]1/C=C\O[C@@]2(C)Oc3c(C)c(O)c4c(c3C2=O)C(=N[C@H]2CC[C@H](O)O[C@@H]2C)C=C(NC(=O)/C(C)=C\C(=O)[C@@H]2C[C@@H]2[C@@H](O)[C@H](C)[C@@H](O)[C@H](C)[C@H](OC(C)=O)[C@@H]1C)C4=O`, `CC[C@@]1(O)C(=O)OCc2c1cc1n(c2=O)Cc2c-1nc1cc(F)c(C)c3c1c2[C@@H](N)CC3` is higher in half-life: 9.93 min for the first, > 30 min for the second.

`O=c1c(-c2ccc(O)cc2)coc2cc(O)ccc12` and `O=C(Nc1ccc(Cl)cc1)Nc1ccc(Cl)c(Cl)c1` cannot be ordered by half-life: > 30 min for the first, > 30 min for the second.

Compared with `CC1CCC(n2c3cnccc3c3cnc(Nc4ccc5c(n4)CCN(C(=O)CO)C5)nc32)CC1` (centres undefined), `C[C@@H]1COCCN1c1cc(C2(S(C)(=N)=O)CC2)nc(-c2ccnc3[nH]ccc23)n1` (some centres undefined) is higher in half-life: 23.5 min for the first, > 30 min for the second.

Going from `COc1ccc(NC(=O)C23CC4CC(CC(C4)C2)C3)cc1[S+](=O)([O-])Nc1ccc(Br)cc1` to `O=C(Nc1ccc(Cl)c(S(=O)(=O)N2CCOCC2)c1)c1ccc(S(=O)(=O)N2CCCCC2)cc1`, the half-life falls from 5 min to 3 min (1.7-fold).

First: Cc1sc2c(c1C)C(c1ccc(Cl)cc1)=N[C@@H](CC(=O)Nc1ccc(OCCOCCOCCOCCNc3cccc4c3C(=O)N(C3CCC(=O)NC3=O)C4=O)cc1)c1nnc(C)n1-2 (some centres undefined)
Second: CCOc1ccc(Nc2nc(C)c(NC(=O)c3ccc(C)cc3)c(Nc3ccc(OCC)cc3)n2)cc1
The half-life of the first is 7-fold lower: 1.26 min for the first, 8.86 min for the second.

`Cn1cncc1[C@@](N)(c1ccc(Cl)cc1)c1ccc2c(c1)c(-c1cccc(Cl)c1)cc(=O)n2C` and `CCc1cccc(-n2nnc(-c3nsc(NC(=O)c4cccc(OC)c4)n3)c2C)c1` are within 1.5-fold of each other in half-life: 9.54 min for the first, 12.8 min for the second.

Work on `CC(Nc1nc(N2CCN(S(C)(=O)=O)CC2)nc2ccccc12)c1ccccc1` (centres undefined) yielded a half-life of 8.03 min.
